Measured values taken from patent US12643866B2, “Small molecule compound serving as JAK kinase inhibitor and use thereof” (TECHNODERMA MEDICINES, INC., priority 2020, dated 2026).
pIC50: −log10 of the molar value.

Columns and labels:
Assay type in all cases: biochemical
JAK2 = JAK2 (Homo sapiens, UniProt O60674); assay: Detection of enzyme activity inhibition of JAK kinases (ULight-JAK substrate, Eu-labeled antibody): JAK2; settings: JAK2 1 nM, ATP 10 μM, substrate 50 nM, 1 hour reaction at room temperature; read-out: JAK2 half-maximum inhibitory concentration (IC50)
Procedure: (§1) Test Example 1: Detection of Enzyme Activity Inhibition of Small Molecule Inhibitors of JAK Kinases
(§2) Kinase reaction buffer: The kinase reaction buffer was prepared with the following components: 50 mM HEPES, pH 7.5, 1 mM EGTA, 10 mM MgCl2, 2 mM DTT, and 0.01% Tween20. 1× test buffer: A test buffer was prepared, and the 10× test buffer was diluted with deionized water (deionized water: test buffer=9:1) to obtain the 1× test buffer. 4× kinase solution: JAK kinase was diluted with a kinase reaction buffer to a final concentration of 4× (JAK1:80 nM, JAK2/JAK3/Tyk2:4 nM). 4× substrate solution: ULight™-JAK (Tyr1023) substrate was diluted with the kinase reaction buffer to 200 nM (final concentration: 50 nM). 4×ATP solution: ATP was diluted with the kinase reaction buffer to a final concentration of 4× (JAK1:160 μM, JAK2/JAK3/Tyk2: 40 μM). 4× test compound solution: The compounds to be tested were dissolved in DMSO to prepare 10 mM stock solutions, which were diluted to have the desired concentrations through 3-fold gradient dilution, 10 concentrations were set for each compound, and final concentrations of the test compounds ranged from 10 μM to 0.5 nM. 4× enzyme reaction termination solution: EDTA was dissolved in a 1× test buffer to 40 mM (final concentration of EDTA: 10 mM). 4× test antibody solution: Eu-labeled test antibodies (anti-phosphotyrosine (PT66)) were diluted with 1× test buffer to 8 nM (final concentration of the antibodies: 2 nM).
(§3) 2.5 μL of the 4× kinase solution and 2.5 μL of each of the 4× test compound solutions having different concentrations were added into a 384-well microwell plate sequentially, with 2 duplicate wells set for each concentration, and an enzyme solution blank control group and a negative control group (DMSO group) were also provided. The 384-well plate was oscillated to mix the enzyme and the compound uniformly, centrifuged at 1000 rpm for 1 minute, and incubated at room temperature for 60 minutes. 2.5 μL of the 4× substrate solution was added into the 384-well plate, and centrifuged at 1000 rpm for 1 minute. 2.5 μL of the 4×ATP solution was added into the 384-well plate, and centrifuged at 1000 rpm for 1 minute to start the enzyme reaction. JAK1 reacted at room temperature for 2 hours, and JAK2/JAK3/Tyk2 reacted at room temperature for 1 hour. The final concentration of each component in the JAK1 reaction was: JAK1:20 nM; substrate: 50 nM; and ATP: 40 μM. The final concentrations of the test compounds ranged from 10 μM to 0.5 nM. The final concentration of each component in the JAK2/JAK3/Tyk2 reaction was: JAK2: 1 nM; substrate: 50 nM; and ATP: 10 μM. The final concentrations of the test compounds ranged from 10 μM to 0.5 nM. After the enzyme reaction ended, 5 μL of the 4× enzyme reaction termination solution was added into each well of the 384-well plate, centrifuged at 1000 rpm for 1 minute, and incubated at room temperature for 5 minutes. 5 μL of the 4× test antibody solution (final concentration of the test antibodies was 2 nM) was added into each well of the 384-well plate, centrifuged at 1000 rpm for 1 minute, and incubated at room temperature for 1 hour. After incubation of the antibodies, a signal value of each well was measured with Envision plate reader.
(§4) Assuming that an inhibition rate of the enzyme solution blank control group was 100% and an inhibition rate of the negative control group (DMSO group) was 0%, an inhibition rate corresponding to each concentration was calculated. Nonlinear regression analysis was performed on the concentration logarithm values and corresponding percentage inhibition rates of the test compounds in GraphPad Prism software to obtain the half-maximum inhibitory concentrations (IC50) of the test compounds.

JAK1 = JAK1 (Homo sapiens, UniProt P23458); assay: Detection of enzyme activity inhibition of JAK kinases (ULight-JAK substrate, Eu-labeled antibody): JAK1; settings: JAK1 20 nM, ATP 40 μM, substrate 50 nM, 2 hours reaction at room temperature; read-out: JAK1 half-maximum inhibitory concentration (IC50)
Procedure: as §1, §2, §3, §4

Tyk2 = Tyk2 (Homo sapiens, UniProt P29597); assay: Detection of enzyme activity inhibition of JAK kinases (ULight-JAK substrate, Eu-labeled antibody): Tyk2; settings: ATP 10 μM, substrate 50 nM, 1 hour reaction at room temperature; read-out: Tyk2 half-maximum inhibitory concentration (IC50)
Procedure: as §1, §2, §3, §4

JAK3 = biological target: T1, JAK3 (Homo sapiens, UniProt P52333); assay: Detection of enzyme activity inhibition of JAK kinases (ULight-JAK substrate, Eu-labeled antibody): JAK3; settings: ATP 10 μM, substrate 50 nM, 1 hour reaction at room temperature; read-out: JAK3 half-maximum inhibitory concentration (IC50)
T1 sequence (P52333 1-1124): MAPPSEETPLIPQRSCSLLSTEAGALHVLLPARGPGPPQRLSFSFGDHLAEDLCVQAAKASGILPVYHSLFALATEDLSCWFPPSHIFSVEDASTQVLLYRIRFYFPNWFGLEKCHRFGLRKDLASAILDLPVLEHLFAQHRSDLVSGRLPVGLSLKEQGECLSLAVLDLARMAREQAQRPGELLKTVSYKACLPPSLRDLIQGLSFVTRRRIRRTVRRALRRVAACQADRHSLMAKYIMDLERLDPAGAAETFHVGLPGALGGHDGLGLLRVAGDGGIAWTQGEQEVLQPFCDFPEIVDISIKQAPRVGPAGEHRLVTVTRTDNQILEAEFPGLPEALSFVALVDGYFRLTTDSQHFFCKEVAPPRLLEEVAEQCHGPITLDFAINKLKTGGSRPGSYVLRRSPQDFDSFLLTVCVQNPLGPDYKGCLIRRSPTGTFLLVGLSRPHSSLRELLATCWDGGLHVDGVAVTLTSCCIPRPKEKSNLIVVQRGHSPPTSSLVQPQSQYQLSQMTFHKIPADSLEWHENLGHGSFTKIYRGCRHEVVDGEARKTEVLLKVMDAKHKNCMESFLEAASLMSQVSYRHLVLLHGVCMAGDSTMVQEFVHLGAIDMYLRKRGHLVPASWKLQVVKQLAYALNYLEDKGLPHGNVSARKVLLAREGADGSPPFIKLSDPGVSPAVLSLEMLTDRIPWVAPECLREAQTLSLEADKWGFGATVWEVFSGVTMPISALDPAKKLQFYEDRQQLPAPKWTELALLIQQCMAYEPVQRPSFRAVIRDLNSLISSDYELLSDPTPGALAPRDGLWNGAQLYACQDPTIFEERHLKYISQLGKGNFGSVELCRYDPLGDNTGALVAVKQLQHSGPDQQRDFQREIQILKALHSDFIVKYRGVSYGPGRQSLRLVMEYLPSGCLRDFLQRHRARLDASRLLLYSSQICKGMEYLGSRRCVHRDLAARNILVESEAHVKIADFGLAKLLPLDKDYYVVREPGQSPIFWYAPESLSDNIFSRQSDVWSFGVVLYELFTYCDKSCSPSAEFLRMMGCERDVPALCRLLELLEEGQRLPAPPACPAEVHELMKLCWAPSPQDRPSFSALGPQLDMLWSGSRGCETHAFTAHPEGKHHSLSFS
Procedure: as §1, §2, §3, §4

JAK2, sequence (O60674 whole entry): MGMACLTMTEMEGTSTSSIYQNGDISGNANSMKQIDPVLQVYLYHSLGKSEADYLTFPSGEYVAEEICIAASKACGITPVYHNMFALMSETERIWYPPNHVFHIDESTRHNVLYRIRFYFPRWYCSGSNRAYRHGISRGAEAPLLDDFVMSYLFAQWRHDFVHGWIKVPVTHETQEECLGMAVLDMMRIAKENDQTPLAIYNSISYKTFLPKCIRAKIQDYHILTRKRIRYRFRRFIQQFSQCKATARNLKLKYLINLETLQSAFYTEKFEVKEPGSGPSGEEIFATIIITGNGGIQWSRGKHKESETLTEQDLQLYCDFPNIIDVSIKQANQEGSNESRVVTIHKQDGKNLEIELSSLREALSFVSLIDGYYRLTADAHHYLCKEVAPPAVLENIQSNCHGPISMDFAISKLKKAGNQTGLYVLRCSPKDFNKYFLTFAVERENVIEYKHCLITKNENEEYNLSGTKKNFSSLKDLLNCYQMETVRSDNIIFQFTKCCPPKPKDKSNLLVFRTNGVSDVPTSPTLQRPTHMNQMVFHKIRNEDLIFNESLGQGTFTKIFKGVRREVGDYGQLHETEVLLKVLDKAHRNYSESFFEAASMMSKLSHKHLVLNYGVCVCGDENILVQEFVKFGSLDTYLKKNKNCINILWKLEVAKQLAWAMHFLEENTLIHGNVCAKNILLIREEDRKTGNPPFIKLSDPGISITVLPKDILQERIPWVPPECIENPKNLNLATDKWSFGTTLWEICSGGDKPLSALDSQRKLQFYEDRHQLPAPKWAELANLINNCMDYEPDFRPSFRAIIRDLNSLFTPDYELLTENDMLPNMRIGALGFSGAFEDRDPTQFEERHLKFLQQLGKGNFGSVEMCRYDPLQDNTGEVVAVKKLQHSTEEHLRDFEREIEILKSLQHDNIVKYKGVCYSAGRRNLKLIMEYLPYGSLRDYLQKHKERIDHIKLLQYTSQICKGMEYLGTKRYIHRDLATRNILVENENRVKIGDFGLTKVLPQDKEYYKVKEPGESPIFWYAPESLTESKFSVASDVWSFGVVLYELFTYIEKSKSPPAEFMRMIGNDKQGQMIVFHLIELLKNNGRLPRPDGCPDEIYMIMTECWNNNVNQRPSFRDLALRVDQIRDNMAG
JAK1, sequence (P23458 whole entry): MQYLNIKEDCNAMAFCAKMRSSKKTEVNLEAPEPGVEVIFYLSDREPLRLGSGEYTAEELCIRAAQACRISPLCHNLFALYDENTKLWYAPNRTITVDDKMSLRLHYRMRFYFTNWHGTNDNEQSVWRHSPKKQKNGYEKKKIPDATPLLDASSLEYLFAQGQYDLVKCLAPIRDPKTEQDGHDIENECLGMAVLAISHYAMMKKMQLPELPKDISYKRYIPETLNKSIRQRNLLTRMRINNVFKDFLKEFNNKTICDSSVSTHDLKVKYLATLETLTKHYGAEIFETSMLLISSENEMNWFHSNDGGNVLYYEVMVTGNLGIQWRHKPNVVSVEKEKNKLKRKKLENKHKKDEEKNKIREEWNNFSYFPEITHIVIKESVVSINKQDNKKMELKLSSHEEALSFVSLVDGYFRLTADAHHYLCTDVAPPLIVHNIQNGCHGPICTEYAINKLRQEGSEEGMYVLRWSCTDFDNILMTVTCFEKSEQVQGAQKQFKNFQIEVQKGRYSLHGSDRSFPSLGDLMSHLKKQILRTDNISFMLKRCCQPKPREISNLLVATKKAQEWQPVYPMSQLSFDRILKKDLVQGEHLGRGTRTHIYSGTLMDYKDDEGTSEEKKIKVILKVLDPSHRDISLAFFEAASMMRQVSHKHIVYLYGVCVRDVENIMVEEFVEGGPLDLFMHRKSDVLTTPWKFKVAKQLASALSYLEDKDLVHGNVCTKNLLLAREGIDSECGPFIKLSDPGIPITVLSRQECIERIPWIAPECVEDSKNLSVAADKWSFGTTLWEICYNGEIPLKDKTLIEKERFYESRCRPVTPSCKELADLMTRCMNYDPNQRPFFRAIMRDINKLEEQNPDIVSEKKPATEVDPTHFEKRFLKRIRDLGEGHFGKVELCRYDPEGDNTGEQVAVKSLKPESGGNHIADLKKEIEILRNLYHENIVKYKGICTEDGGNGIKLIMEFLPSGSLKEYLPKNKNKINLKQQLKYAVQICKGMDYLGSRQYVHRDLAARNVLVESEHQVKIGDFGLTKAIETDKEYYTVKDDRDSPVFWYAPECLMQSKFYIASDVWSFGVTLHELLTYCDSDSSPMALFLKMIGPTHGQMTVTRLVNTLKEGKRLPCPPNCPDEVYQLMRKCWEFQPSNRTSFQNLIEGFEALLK
Tyk2, sequence (P29597 whole entry): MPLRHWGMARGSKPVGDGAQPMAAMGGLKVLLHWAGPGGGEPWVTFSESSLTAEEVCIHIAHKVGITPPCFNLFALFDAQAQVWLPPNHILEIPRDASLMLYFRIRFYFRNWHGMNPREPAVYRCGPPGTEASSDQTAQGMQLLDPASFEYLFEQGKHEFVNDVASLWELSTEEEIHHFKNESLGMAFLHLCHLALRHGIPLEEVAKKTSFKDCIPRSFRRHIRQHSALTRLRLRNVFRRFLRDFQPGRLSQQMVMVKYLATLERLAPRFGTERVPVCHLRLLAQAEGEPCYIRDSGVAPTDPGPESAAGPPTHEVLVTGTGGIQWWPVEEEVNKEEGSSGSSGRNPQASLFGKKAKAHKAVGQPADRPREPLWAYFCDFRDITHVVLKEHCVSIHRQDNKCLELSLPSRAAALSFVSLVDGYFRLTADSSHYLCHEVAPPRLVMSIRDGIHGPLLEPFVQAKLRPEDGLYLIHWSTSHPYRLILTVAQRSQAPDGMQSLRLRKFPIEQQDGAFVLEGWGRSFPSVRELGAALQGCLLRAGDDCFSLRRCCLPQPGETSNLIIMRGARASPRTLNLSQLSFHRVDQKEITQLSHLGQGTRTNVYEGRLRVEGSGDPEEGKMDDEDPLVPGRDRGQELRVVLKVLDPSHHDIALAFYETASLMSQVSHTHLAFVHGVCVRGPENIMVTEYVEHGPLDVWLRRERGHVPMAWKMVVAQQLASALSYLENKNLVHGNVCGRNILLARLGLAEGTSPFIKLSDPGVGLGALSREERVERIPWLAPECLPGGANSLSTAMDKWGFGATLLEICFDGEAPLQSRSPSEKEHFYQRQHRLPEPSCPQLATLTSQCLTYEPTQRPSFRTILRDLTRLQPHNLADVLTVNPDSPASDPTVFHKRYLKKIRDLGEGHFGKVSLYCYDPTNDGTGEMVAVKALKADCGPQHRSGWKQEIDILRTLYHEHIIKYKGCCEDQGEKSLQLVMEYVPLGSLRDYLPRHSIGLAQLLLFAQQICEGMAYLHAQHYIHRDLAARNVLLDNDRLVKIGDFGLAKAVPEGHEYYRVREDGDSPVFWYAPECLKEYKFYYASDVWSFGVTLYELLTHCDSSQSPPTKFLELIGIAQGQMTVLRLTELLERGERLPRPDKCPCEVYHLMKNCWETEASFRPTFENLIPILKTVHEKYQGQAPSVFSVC

SMILES | pIC50 (JAK2) | pIC50 (JAK1) | pIC50 (Tyk2) | pIC50 (JAK3)
CCNC(=O)c1ccc(Nc2nccc(-c3ccc(NC(=O)[C@@H]4CC4(F)F)nc3)n2)cc1 [TDM-180971, (S)-4((4-(6-(2,2-difluorocyclopropane-1-formamido)pyridin-3-yl)pyrimidin-2-yl)amino)-N-ethyl benzamide] | 8.15 | 8.22 | 8.30 | 6.66
Cc1cc(Nc2nccc(-c3ccc(NC(=O)[C@@H]4CC4(F)F)cc3)n2)cnc1C(N)=O [TDM-180974] | 8.15 | 8.15 | 8.10 | 6.46
CNC(=O)c1ncc(Nc2nccc(-c3ccc(NC(=O)[C@@H]4CC4(F)F)nc3)n2)cc1C [TDM-180979, (S)-5((4-(6-(2,2-difluorocyclopropane-1-carboxamido)pyridin-3-yl)pyrimidin-2-yl)amino)-N,3-dimethylpyridinolineamide] | 7.48 | 7.60 | 7.77 | 6.03
Cc1cc(Nc2nccc(-c3ccc(NC(=O)[C@@H]4CC4(F)F)nc3)n2)cnc1C(N)=O [TDM-180980, (S)-5-((4-(6-(2,2-difluorocyclopropane-1-carboxamido)pyridin-3-yl)pyrimidin-2-yl)amino)-3-methyl pyridinolineamide] | 7.52 | 7.55 | 7.74 | < 5.30
CC(CO)c1ccc(Nc2nccc(-c3ccc(NC(=O)[C@@H]4CC4(F)F)nc3)n2)cn1 (stereo partly shown) [TDM-180987] | 7.66 | 7.60 | 7.77 | 6.51

Compounds with a higher pIC50 (JAK3), results first:

pIC50 (JAK2) | pIC50 (JAK1) | pIC50 (Tyk2) | pIC50 (JAK3) | SMILES
8.10 | 8.10 | 8.10 | 6.74 | CNC(=O)c1ncc(Nc2nccc(-c3ccc(NC(=O)[C@@H]4CC4(F)F)cc3)n2)cc1C [TDM-180981]
7.89 | 7.96 | 7.85 | 6.75 | CC(CO)c1ccc(Nc2nccc(-c3ccc(NC(=O)[C@@H]4CC4(F)F)cc3)n2)cn1 (stereo partly shown) [TDM-180989]
8.52 | 8.40 | 8.30 | 6.93 | CCNC(=O)c1ccc(Nc2nccc(-c3ccc(NC(=O)[C@@H]4CC4(F)F)cc3)n2)cc1 [TDM-180972]
8.05 | 8.10 | 8.30 | 6.98 | CCNC(=O)c1ccc(Nc2nccc(-c3ccc(NC(=O)[C@@H]4CC4(F)F)nc3)n2)cc1C [TDM-180984, (S)-4-((4-(6-(2,2-difluorocyclopropane-1-carboxamido)pyridin-3-yl)pyrimidin-2-yl)amino)-N-ethyl-2-methylbenzamide]
– | – | – | 7.24 | CCNC(=O)c1ccc(Nc2nccc(-c3ccc(NC(=O)[C@@H]4CC4(F)F)cc3)n2)cc1C [TDM-180977, (S)-4-(4-(4-(4-(2,2-difluorocyclopropane-1-carboxamido)phenyl)pyrimidin-2-yl)amino)-N-ethyl-2-methylbenzamide]
